The values below come from US20030095937A1, “Method for stimulating hair growth by administering vitamin D analogs” (priority 2001, published 2003).

SMILES strings stand for the structures.

For data set [1], the system named is MCF-7 breast cancer cells. Briefly: Inhibition of clonal growth of MCF-7 cells. Type of data set: cell-based, human. The following applies: effective dose that inhibited 50% clonal growth of MCF-7 breast cancer cells.
For data set [2], the system named is BNX nu/nu mice. The experiment in a line: Hair growth scoring in nude mice. It is filed as in vivo. Further details: key: 1: Skin pink, no hair; 2: Skin thick, pigmented, no hair; 3: Skin thick, highly pigmented, no hair; 4: Skin thick, pigmented, scattered hair; 5: Hair 1-10% of area; 6: Hair 10-25% of area; 7: Hair 25-50% of area; 8: Hair 50-75% of area; 9: Hair >75% of area; Hair 100% covered. The following applies: male nude mice, i.p. 3 times a week, at least 35 days, hair score scale 1-10.

Data set [3] concerns human HL60 myeloid leukemia cells. The experiment in a line: Inhibition of clonal growth of HL60 cells. It is filed as cell-based. The following applies: effective dose that inhibited 50% clonal growth of human HL60 myeloid leukemia cells.
Data set [4] is described as follows: Calcemic properties: highest dose that would not cause hypercalcemia. The following applies: identified in previous experiments. Type of data set: in vivo, mouse. The method, then:
(§1) Vitamin D3 analogs were dissolved in absolute ethanol prior to determining the molar concentration as measured by UV absorbance using their molar extinction coefficient at […]. All the analogs were stored at −20° C. in absolute ethanol as stock solutions of 10^−3 mol/liter. The last dilution was made in phosphate buffered saline, prior to administration into mice. Vitamin D3 compounds were always protected from light. The inventors chose the highest dose that would not cause hypercalcemia. These doses, identified in previous experiments, are summarized below in Table 1.

The test system of data set [5] is BNX nu/nu mice. Briefly: Hair growth scoring in nude mice. Further details: key to Peak Score, Mouse 2: 1: Skin pink, no hair; 2: Skin thick, pigmented, no hair; 3: Skin thick, highly pigmented, no hair; 4: Skin thick, pigmented, scattered hair; 5: Hair 1-10% of area; 6: Hair 10-25% of area; 7: Hair 25-50% of area; 8: Hair 50-75% of area; 9: Hair >75% of area; Hair 100% covered. Type of data set: in vivo. How it is done: In the experiments described herein, BNX nu/nu male and female mice at 8 weeks of age were used. In one series of experiments, a total of 3 males were allotted equally within each of the groups consisting of 6 different vitamin D3 compounds, and a control untreated group. In an addition, three male and 3 female mice received EB1089. All of the analogs were injected intraperitoneally (i.p.), three times a week in a volume of 200 μl phosphate buffered saline.
as §1
The inventors developed the following scale for measuring hair growth in BNX mice:
The inventors examined hair growth of nude mice as the mice received diluant (control mice), 1.25(OH)2D3 or one of 6 vitamin D3 analogs. Each group contained three mice. The effect of Vitamin D3 analogs on hair growth of nude mice was systematically assessed on each mouse by giving them scores from a scale of 1-10 (Table1), 3 times a week. The score for hair growth takes in to account the thickness and pigmentation, as both of these characteristics correlate indirectly with induction of anagen, the growth phase of the hair cycle. For example, a score of […] represents skin thickening with heavy pigmentation; this reflects the formation of the hair shaft prior to the protrusion of hair above the skin surface.

Data set [6] concerns CYP19 gene that encodes the P450 aromatase. The experiment in a line: RT-PCR RNA analysis of skin samples for CYP19 expression. The following applies: skin samples at the highest score of 7, RT-PCR, data not shown. Type of data set: in vivo, mice. How it is done:
Skin samples from mice were processed as is routinely done in the art. RT-PCR was performed to make cDNA which was examined for expression of CYP19 gene that encodes the P450 aromatase (9).
Skin samples at the highest score of 7 from Ro-25-9022 and control skin sample were processed to extract RNA, cDNA was made and amplified for the expression of CYP19 gene that encodes P450 aromatase.

Setting [7] is: male nude mice, i.p. 3 times a week, at least 35 days, hair score scale 1-10.
The mark [8] stands for this setting: male nude mice, three mice per group, i.p. 3 times a week, hair score scale 1-10.
The mark [9] stands for this setting: female nude mice, i.p. 3 times a week, hair score scale 1-10.

Take `C=C1/C(=C\C=C2/CCC[C@]3(C)[C@@H]([C@H](C)CCCC(C)(C)O)CC[C@@H]23)C[C@@H](O)C[C@@H]1O` [1,25(OH)2D3, reference compound]: the “ED50 MCF-7” value in data set [1] is listed as 1 × 10^−7 MOLAR UNITS. Besides, the “Peak Score, Mouse 3” value in the data set with BNX nu/nu mice [2] was found to be 4. In addition, in data set [3], the “ED50 HL60” value was 1 × 10^−8 MOLAR UNITS. Moreover, the “NON-HYPERCALCEMIC DOSE” value in data set [4] is listed as 0.0626 μg/mouse. In the data set with BNX nu/nu mice [5] (setting [7]), the “Peak Score, Mouse 1” value was 5 (Hair 1-10% of area) and the “Peak Score, Mouse 2” value is listed as 5 (Hair 1-10% of area). Besides, in the data set on BNX nu/nu mice [5] (setting [8]), the “Mean Peak Score” value amounted to 4.67. The “hair growth score reached, not exceeded” value in the data set with BNX nu/nu mice [5] (nude mice, scored 3 times a week, scale 1-10) is 5 (Hair 1-10% of area).
With `C=C1/C(=C\C=C2/CCC[C@]3(C)[C@@H]([C@H](C)/C=C/C=C/C(O)(CC)CC)CC[C@@H]23)C[C@@H](O)C[C@@H]1O` [EB1089], the “Peak Score, Mouse 3” value is recorded as 4 in the data set with BNX nu/nu mice [2] and 7 (Hair 25-50% of area) in the data set with BNX nu/nu mice [5] (setting [9]). The “ED50 HL60” value in data set [3] is recorded as 5 × 10^−11 MOLAR UNITS. In addition, the “NON-HYPERCALCEMIC DOSE” value in data set [4] is 0.5 µg/kg. For the same compound, the “timing of first peak of hair growth, females vs males” value with BNX nu/nu mice [5] (FIG. 3F) is recorded as “first peak of hair growth in females slightly preceded the peak in the males”. Moreover, the “ability to stimulate hair growth in male and female mice” value in the data set on BNX nu/nu mice [5] (both males and females) was “Both males and females had hair stimulation”. Further, the results for the “latency period to achieve maximal hair growth” value (“latency period” for short) in the data set on BNX nu/nu mice [5] (female nude mice) and with BNX nu/nu mice [5] (male nude mice) were “about 9 days” and “about 18 days”, respectively. Also, the “Peak Score, Mouse 1” value in the data set on BNX nu/nu mice [5] (setting [9]) and in the data set on BNX nu/nu mice [5] (setting [7]) was 7 (Hair 25-50% of area) throughout. Moreover, the “Peak Score, Mouse 2” value in the data set on BNX nu/nu mice [5] (setting [9]) is on record as 7 (Hair 25-50% of area); in the data set with BNX nu/nu mice [5] (setting [7]), 8 (Hair 50-75% of area). Moreover, the “Mean Peak Score” value with BNX nu/nu mice [5] (female nude mice, three mice, i.p. 3 times a week, hair score scale 1-10) was 7.00; in the data set on BNX nu/nu mice [5] (setting [8]) it was 6.33. Moreover, the “time of second cycle of hair growth from the first cycle” value (“time of second cycle of hair growth” for short) in the data set on BNX nu/nu mice [5] (nude mice) is “about 16 days”.
`C=C1/C(=C\C=C2/CCC[C@]3(C)[C@@H]([C@@H](C)OCCCC(O)(CC)CC)CC[C@@H]23)C[C@@H](O)C[C@@H]1O` [KH1060, 1α, 25—(OH)2-20-epi-22-oxa-24,26,27-trishomo-vitamin D3]: the “ED50 MCF-7” value in data set [1] is 1 × 10^−10 MOLAR UNITS. Moreover, the “Peak Score, Mouse 3” value with BNX nu/nu mice [2] was 6 (Hair 10-25% of area). Moreover, the “ED50 HL60” value in data set [3] was 1 × 10^−12 MOLAR UNITS. Also, in data set [4], the “NON-HYPERCALCEMIC DOSE” value was 0.0125 μg/mouse. For the same compound, the “latency period” value in the data set on BNX nu/nu mice [5] (male nude mice) is on record as around 21 days. Further, in the data set on BNX nu/nu mice [5] (setting [7]), the “Peak Score, Mouse 1” value is reported as 8 (Hair 50-75% of area) and the “Peak Score, Mouse 2” value is recorded as 6 (Hair 10-25% of area). The “Mean Peak Score” value with BNX nu/nu mice [5] (setting [8]) was found to be 6.67.
`C[C@H](C/C=C/C(O)(C(F)(F)F)C(F)(F)F)C1=CCC2/C(=C/C=C3C[C@@H](O)C[C@H](O)C3)CCC[C@]12C` (stereo partly shown) [Ro25-9022, 1,25-(OH)2-16-ene-23-yne-26,27-F6-19-nor-D3]: the “ED50 MCF-7” value in data set [1] was 6 × 10^−10 MOLAR UNITS. The “Peak Score, Mouse 3” value with BNX nu/nu mice [2] is on record as 4. For the same compound, in data set [3], the “ED50 HL60” value is 2 × 10^−10 MOLAR UNITS. Moreover, the “NON-HYPERCALCEMIC DOSE” value in data set [4] is given as 0.00125 μg/mouse. In the data set on BNX nu/nu mice [5] (setting [7]), the “Peak Score, Mouse 1” value was 8 (Hair 50-75% of area) and the “Peak Score, Mouse 2” value stood at 4. Also, the “Mean Peak Score” value with BNX nu/nu mice [5] (setting [8]) was found to be 6.33. Moreover, in data set [6], the “expression of CYP19 gene (P450 aromatase) vs control skin sample” value is on record as “equivalent expression”.
`C[C@H](CCC(=O)C(C)(C)O)C1=CCC2/C(=C/C=C3C[C@@H](O)C[C@H](O)C3)CCC[C@]12C` (stereo partly shown) [Ro26-9114]: the “Peak Score, Mouse 3” value with BNX nu/nu mice [2] is given as 4. Besides, the “ED50 HL60” value in data set [3] is recorded as 1 × 10^−10 MOLAR UNITS. For the same compound, the “NON-HYPERCALCEMIC DOSE” value in data set [4] is 6 μg/mouse. For the same compound, the “latency period” value in the data set on BNX nu/nu mice [5] (male nude mice) is on record as “about 9 days”. In the data set with BNX nu/nu mice [5] (setting [7]), the “Peak Score, Mouse 1” value is 8 (Hair 50-75% of area) and the “Peak Score, Mouse 2” value was 8 (Hair 50-75% of area). Also, the “Mean Peak Score” value in the data set with BNX nu/nu mice [5] (setting [8]) is recorded as 5.33. Moreover, the “time of second cycle of hair growth” value in the data set with BNX nu/nu mice [5] (nude mice) is recorded as “about 16 days”.
On to `C[C@]12CCC/C(=C\C=C3C[C@@H](O)C[C@H](O)C3)C1CC[C@@H]2C1(C/C=C/C(O)(C(F)(F)F)C(F)(F)F)CC1` (stereo partly shown) [Ro27-0574], for which the “ED50 MCF-7” value in data set [1] is 2 × 10^−9 MOLAR UNITS. Further, the “Peak Score, Mouse 3” value with BNX nu/nu mice [2] was 4. For the same compound, the “ED50 HL60” value in data set [3] is given as 2 × 10^−10 MOLAR UNITS. In the data set with BNX nu/nu mice [5] (setting [7]), the “Peak Score, Mouse 1” value is recorded as 8 (Hair 50-75% of area) and the “Peak Score, Mouse 2” value is 8 (Hair 50-75% of area). Further, the “Mean Peak Score” value in the data set with BNX nu/nu mice [5] (setting [8]) amounted to 6.67. In addition, the “time of second cycle of hair growth” value in the data set on BNX nu/nu mice [5] (nude mice) was “about 16 days”.
Turning to `CC(C)(O)CCCC(CCCC(C)(C)O)[C@H]1CCC2/C(=C/C=C3C[C@@H](O)C[C@H](O)C3)CCC[C@@]21C` (stereo partly shown) [Ro27-5646], the “ED50 MCF-7” value in data set [1] was 4 × 10^−10 MOLAR UNITS. Moreover, the “Peak Score, Mouse 3” value in the data set on BNX nu/nu mice [2] is on record as 6 (Hair 10-25% of area). Moreover, the “ED50 HL60” value in data set [3] is recorded as 2 × 10^−10 MOLAR UNITS. Also, the “NON-HYPERCALCEMIC DOSE” value in data set [4] is 0.01 μg/mouse. Moreover, in the data set with BNX nu/nu mice [5] (setting [7]), the “Peak Score, Mouse 1” value is reported as 8 (Hair 50-75% of area) and the “Peak Score, Mouse 2” value is given as 8 (Hair 50-75% of area). Also, the “Mean Peak Score” value in the data set on BNX nu/nu mice [5] (setting [8]) is reported as 7.33.
